Reference: the supplement of paper PMC10307832

What was measured:
Experiment in all cases: relative viability (nuclei count vs DMSO), 5 days (fraction); higher = more cells survive
RERF-LC-KJ = test system: RERF-LC-KJ
Summary of the method: (§1)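 Lung cancer cell lines, seeded in 1536-well plates, were treated the following day by pin tool with a single drug or with five library-drug doses (not always all listed) in √10 steps on top of a fixed anchor-drug dose. Cells were fixed and nuclei stained in one step after 5 days, and nuclei were counted. Relative viability is the nuclei count for treated wells divided by that for vehicle wells, reported as medians of duplicate plates.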

HCC-15 = test system: HCC-15
Summary of the method: as §1

NCI-H2347 = test system: NCI-H2347
Summary of the method: as §1

HCC-366 = test system: HCC-366
Summary of the method: as §1

NCI-H1437 = test system: NCI-H1437
Summary of the method: as §1

PC-14 = test system: PC-14
Summary of the method: as §1

NCI-H460 = test system: NCI-H460
Summary of the method: as §1

H3255 = test system: H3255
Summary of the method: as §1

SW 900 = test system: SW 900
Summary of the method: as §1

NCI-H727 = test system: NCI-H727
Summary of the method: as §1

NCI-H1648 = test system: NCI-H1648
Summary of the method: as §1

ABC-1 = test system: ABC-1
Summary of the method: as §1

HARA = test system: HARA
Summary of the method: as §1

COR-L 105 = test system: COR-L 105
Summary of the method: as §1

NCI-H1915 = test system: NCI-H1915
Summary of the method: as §1

NCI-H838 = test system: NCI-H838
Summary of the method: as §1

NCI-H1944 = test system: NCI-H1944
Summary of the method: as §1

LU99A = test system: LU99A
Summary of the method: as §1

NCI-H1734 = test system: NCI-H1734
Summary of the method: as §1

NCI-H1666 = test system: NCI-H1666
Summary of the method: as §1

LC-2-ad = test system: LC-2-ad
Summary of the method: as §1

NCI-H650 = test system: NCI-H650
Summary of the method: as §1

CAL-12T = test system: CAL-12T
Summary of the method: as §1

SMILES: C=C1C(=O)O[C@@H](CCCCCCCC)[C@@H]1C(=O)O [C-75] + CC(=O)c1c(C)c2cnc(Nc3ccc(N4CCNCC4)cn3)nc2n(C2CCCC2)c1=O [Palbociclib] (partner 0.5 µM)
- relative viability (RERF-LC-KJ; first compound 0.08 µM): 1.06
- relative viability (RERF-LC-KJ; first compound 0.253 µM): 1.12
- relative viability (RERF-LC-KJ; first compound 0.8 µM): 1.07
- relative viability (RERF-LC-KJ; first compound 2.53 µM): 1.03
- relative viability (RERF-LC-KJ; first compound 8 µM): 1.15
- relative viability (HCC-15; first compound 0.08 µM): 0.717
- relative viability (HCC-15; first compound 0.253 µM): 0.699
- relative viability (HCC-15; first compound 0.8 µM): 0.605
- relative viability (HCC-15; first compound 2.53 µM): 0.628
- relative viability (HCC-15; first compound 8 µM): 0.664
- relative viability (NCI-H2347; first compound 0.08 µM): 0.468
- relative viability (NCI-H2347; first compound 0.253 µM): 0.44
- relative viability (NCI-H2347; first compound 0.8 µM): 0.35
- relative viability (NCI-H2347; first compound 2.53 µM): 0.389
- relative viability (NCI-H2347; first compound 8 µM): 0.413
- relative viability (HCC-366; first compound 0.08 µM): 0.363
- relative viability (HCC-366; first compound 0.253 µM): 0.477
- relative viability (HCC-366; first compound 0.8 µM): 0.33
- relative viability (HCC-366; first compound 2.53 µM): 0.334
- relative viability (HCC-366; first compound 8 µM): 0.343
- relative viability (NCI-H1437; first compound 0.08 µM): 0.301
- relative viability (NCI-H1437; first compound 0.253 µM): 0.381
- relative viability (NCI-H1437; first compound 0.8 µM): 0.299
- relative viability (NCI-H1437; first compound 8 µM): 0.312
- relative viability (PC-14; first compound 0.08 µM): 0.54
- relative viability (PC-14; first compound 0.253 µM): 0.546
- relative viability (PC-14; first compound 0.8 µM): 0.504
- relative viability (PC-14; first compound 2.53 µM): 0.453
- relative viability (PC-14; first compound 8 µM): 0.445
- relative viability (NCI-H460; first compound 0.08 µM): 0.0813
- relative viability (NCI-H460; first compound 0.253 µM): 0.104
- relative viability (NCI-H460; first compound 0.8 µM): 0.126
- relative viability (NCI-H460; first compound 2.53 µM): 0.132
- relative viability (NCI-H460; first compound 8 µM): 0.155
- relative viability (H3255; first compound 0.08 µM): 0.319
- relative viability (H3255; first compound 0.253 µM): 0.28
- relative viability (H3255; first compound 0.8 µM): 0.323
- relative viability (H3255; first compound 2.53 µM): 0.281
- relative viability (H3255; first compound 8 µM): 0.329
- relative viability (SW 900; first compound 0.08 µM): 0.49
- relative viability (SW 900; first compound 0.253 µM): 0.647
- relative viability (SW 900; first compound 0.8 µM): 0.601
- relative viability (SW 900; first compound 2.53 µM): 0.594
- relative viability (SW 900; first compound 8 µM): 0.607
- relative viability (NCI-H727; first compound 0.08 µM): 0.755
- relative viability (NCI-H727; first compound 0.253 µM): 0.667
- relative viability (NCI-H727; first compound 0.8 µM): 0.544
- relative viability (NCI-H727; first compound 2.53 µM): 0.614
- relative viability (NCI-H727; first compound 8 µM): 0.624
- relative viability (NCI-H1648; first compound 0.08 µM): 0.251
- relative viability (NCI-H1648; first compound 0.253 µM): 0.398
- relative viability (NCI-H1648; first compound 0.8 µM): 0.292
- relative viability (NCI-H1648; first compound 8 µM): 0.295
- relative viability (ABC-1; first compound 0.08 µM): 0.711
- relative viability (ABC-1; first compound 0.253 µM): 0.935
- relative viability (ABC-1; first compound 0.8 µM): 0.559
- relative viability (ABC-1; first compound 2.53 µM): 0.494
- relative viability (ABC-1; first compound 8 µM): 0.494
- relative viability (HARA; first compound 0.08 µM): 0.254
- relative viability (HARA; first compound 0.253 µM): 0.222
- relative viability (HARA; first compound 0.8 µM): 0.273
- relative viability (HARA; first compound 2.53 µM): 0.222
- relative viability (HARA; first compound 8 µM): 0.28
- relative viability (COR-L 105; first compound 0.08 µM): 0.417
- relative viability (COR-L 105; first compound 0.253 µM): 0.41
- relative viability (COR-L 105; first compound 0.8 µM): 0.358
- relative viability (COR-L 105; first compound 2.53 µM): 0.303
- relative viability (COR-L 105; first compound 8 µM): 0.39
- relative viability (NCI-H1915; first compound 0.08 µM): 0.515
- relative viability (NCI-H1915; first compound 0.253 µM): 0.556
- relative viability (NCI-H1915; first compound 0.8 µM): 0.546
- relative viability (NCI-H1915; first compound 2.53 µM): 0.472
- relative viability (NCI-H1915; first compound 8 µM): 0.5
- relative viability (NCI-H838; first compound 0.08 µM): 0.227
- relative viability (NCI-H838; first compound 0.253 µM): 0.206
- relative viability (NCI-H838; first compound 0.8 µM): 0.194
- relative viability (NCI-H838; first compound 2.53 µM): 0.207
- relative viability (NCI-H838; first compound 8 µM): 0.206
- relative viability (NCI-H1944; first compound 0.08 µM): 0.34
- relative viability (NCI-H1944; first compound 0.253 µM): 0.296
- relative viability (NCI-H1944; first compound 0.8 µM): 0.279
- relative viability (NCI-H1944; first compound 2.53 µM): 0.305
- relative viability (NCI-H1944; first compound 8 µM): 0.305
- relative viability (LU99A; first compound 0.08 µM): 0.383
- relative viability (LU99A; first compound 0.253 µM): 0.354
- relative viability (LU99A; first compound 0.8 µM): 0.481
- relative viability (LU99A; first compound 2.53 µM): 0.408
- relative viability (LU99A; first compound 8 µM): 0.398
- relative viability (NCI-H1734; first compound 0.08 µM): 0.34
- relative viability (NCI-H1734; first compound 0.253 µM): 0.315
- relative viability (NCI-H1734; first compound 0.8 µM): 0.36
- relative viability (NCI-H1734; first compound 2.53 µM): 0.254
- relative viability (NCI-H1734; first compound 8 µM): 0.345
- relative viability (NCI-H1666; first compound 0.08 µM): 0.626
- relative viability (NCI-H1666; first compound 0.253 µM): 0.638
- relative viability (NCI-H1666; first compound 0.8 µM): 0.662
- relative viability (NCI-H1666; first compound 8 µM): 0.594
- relative viability (LC-2-ad; first compound 0.08 µM): 0.555
- relative viability (LC-2-ad; first compound 0.253 µM): 0.474
- relative viability (LC-2-ad; first compound 0.8 µM): 0.471
- relative viability (LC-2-ad; first compound 2.53 µM): 0.381
- relative viability (LC-2-ad; first compound 8 µM): 0.482
- relative viability (NCI-H650; first compound 0.08 µM): 0.31
- relative viability (NCI-H650; first compound 0.253 µM): 0.27
- relative viability (NCI-H650; first compound 0.8 µM): 0.36
- relative viability (NCI-H650; first compound 2.53 µM): 0.283
- relative viability (NCI-H650; first compound 8 µM): 0.39
- relative viability (CAL-12T; first compound 0.08 µM): 0.531
- relative viability (CAL-12T; first compound 0.253 µM): 0.533
- relative viability (CAL-12T; first compound 0.8 µM): 0.452
- relative viability (CAL-12T; first compound 2.53 µM): 0.458
- relative viability (CAL-12T; first compound 8 µM): 0.449
